Assay results taken from article PMC10057887, “Analysis of Essential Isoprene Metabolic Pathway Proteins in Variovorax sp. Strain WS11” (Applied and Environmental Microbiology, 2023).

How the values were obtained:
AD45-AldH [1] = test: NADH formation at […] nm, substrate inhibition model at high concentrations; format: biochemical, Rhodococcus sp. AD45; details: NAD+ 5 mM, 50 mM sodium carbonate pH 10.0, racemic substrate
WS11-AldH [2] = system: T1, WS11-AldH; test: as above; format: biochemical, Variovorax sp. WS11; details: NAD+ 5 mM, 50 mM sodium carbonate pH 10.0, racemic substrate
T1 construct: isoprene cluster copy, on megaplasmid

WS11-AldH [3] = system: T1, WS11-AldH; test: NADH formation at […] nm, Michaelis-Menten fit; format: biochemical, Variovorax sp. WS11; details: NAD+ 5 mM, 50 mM sodium carbonate pH 10.0
AD45-AldH [4] = test: NADH formation at […] nm, Michaelis-Menten fit; format: biochemical, Rhodococcus sp. AD45; details: NAD+ 5 mM, 50 mM sodium carbonate pH 10.0

| Km (AD45-AldH [1]) [µM] | Km (WS11-AldH [2]) [µM] | Km (WS11-AldH [3]; predicted Km, not saturated at 10 mM) [µM] | Km (AD45-AldH [4]) [µM] | Km (WS11-AldH [3]) [µM] | SMILES |
| --- | --- | --- | --- | --- | --- |
| 30 | 120 | – | – | – | CCC(C)C=O (racemic) [2-methylbutanal] |
| – | – | ~10900 | 570 | – | CCC=O [propanal] |
| – | – | – | 80 | 690 | CCCC=O [butanal] |
